How the values were obtained:
Experiment in all cases: NCI60 five-dose screen
Type in all cases: cell-based
[1] = system: SNB-75; conditions: Homo sapiens; SNB-75, CNS Cancer
How it was run: (§1)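 Five-concentration 48 h exposure in RPMI 1640/5% FBS medium at 37 °C, with cells seeded 24 h beforehand. Read-out: TCA fixation and SRB absorbance at 515 nm. GI50 marks 50% reduction of net protein increase.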

[2] = system: PC-3; conditions: Homo sapiens; PC-3, Prostate Cancer
How it was run: as §1

[3] = system: RPMI-8226; conditions: Homo sapiens; RPMI-8226, Leukemia
How it was run: as §1

SMILES	GI50 [1] [nM]	GI50 [2] [nM]	GI50 [3] [nM]
O=c1cc(-c2ccccc2)oc2cc(OCCCC[P+](c3ccccc3)(c3ccccc3)c3ccccc3)cc(O)c12 [3a]	165	305	205
Cc1ccc([P+](CCCCOc2cc(O)c3c(=O)cc(-c4ccccc4)oc3c2)(c2ccc(C)cc2)c2ccc(C)cc2)cc1 [3b]	219	182	144
COc1ccc([P+](CCCCOc2cc(O)c3c(=O)cc(-c4ccccc4)oc3c2)(c2ccc(OC)cc2)c2ccc(OC)cc2)cc1 [3c]	344	320	235
O=c1cc(-c2ccccc2)oc2cc(OCCCC[P+](c3ccc(F)cc3)(c3ccc(F)cc3)c3ccc(F)cc3)cc(O)c12 [3d]	1670	1760	1310
O=c1cc(-c2ccccc2)oc2cc(OCCCC[P+](C3CCCCC3)(C3CCCCC3)C3CCCCC3)cc(O)c12 [3e]	529	501	182
COc1c(C)cc([P+](CCCCOc2cc(O)c3c(=O)cc(-c4ccccc4)oc3c2)(c2cc(C)c(OC)c(C)c2)c2cc(C)c(OC)c(C)c2)cc1C [3f]	213	276	110
Cc1ccccc1[P+](CCCCOc1cc(O)c2c(=O)cc(-c3ccccc3)oc2c1)(c1ccccc1C)c1ccccc1C [3g]	274	308	135
O=c1cc(-c2ccccc2)oc2cc(OCCCC[P+](c3ccccc3)(c3ccccc3)c3ccccn3)cc(O)c12 [3h]	572	572	248
